Test: pKa of Brönsted acidic or basic functional groups of the fluorescer
Assay type: physicochemical
Conditions: functional groups comprised in the fluorescer
Source text: In addition, a preferred group of […] can be described by the presence and pKa of certain functional groups in the fluorescer. Therefore, a preferred group of hydrophilic fluorescers comprises fluorescers having at least one or more Brönsted acidic, basic functional groups or mixtures thereof with a pKa of 7 or less. A Brönsted acidic functional group is generally defined as a —AH group having a pKa of 7 or less for the equilibrium dissociation constant Ka=[—A][H′]/[—AH]. Likewise a Brönsted basic functional group is generally defined as a —B group, the conjugate acid of it (i.e. BH^+) having a pKa of 7 or less for the equilibrium dissociation constant Ka=[—B][H^+]/[—BH^+]. Examples of acidic functional groups include sulphonate, carboxylate, sulphate, phosphate, phosphonate and phosphinate. Examples of basic functional groups include amino groups, primary, secondary and tertiary amine groups.

pKa of functional groups: < 7
Compound: O=S(=O)([O-])c1ccccc1C=Cc1ccc(-c2ccc(C=Cc3ccccc3S(=O)(=O)[O-])cc2)cc1.[Na+].[Na+] [TINOPAL™ CBS-X]
